Data set [1] in a line: Simulated Hand Stirring Test (calcium sedimentation after stirring a unit dose in water). The settings on record: for calcium base reacts fast enough with the acid for minimal calcium sedimentation: with appropriate amount of sugar, stirred for less than about 60 seconds by hand; for Sweetener/calcium ratio to pass 60-second Simulated Hand Stirring Test: calcium hydroxide providing 300 mg calcium per unit dose, citric acid 0.96 gram per unit dose, 200 ml water at 25° C., 200 rpm; for Acid required/Dose: citric acid to pass 60-second test. The format is physicochemical. As to the method:
A magnetic stir bar (9.5×50.8 mm, catalogue no. 58948-980, VWR Spinbar®, USA) is placed in a 250-ml Pyrex® beaker (catalogue no. 1000-250, Corning, USA) to which 200 ml of water at 25° C. is added. The beaker is placed on top of a digital magnetic stirrer (Cole Parmer, USA) and the speed set at 200 rpm. A unit dose of a powdered mix is then added to the water and stirred for a given period of time, after which the beaker is removed and calcium sedimentation evaluated on a 1-10 scale, with 1 denoting no visible calcium sedimentation. A rating of 2 denoting very minimal calcium sedimentation, which is visually acceptable, is set as the minimum dissolution criterion.
Hereafter, this test will be referred to as the “Simulated Hand Stirring Test”. When the stirring time is 60 seconds, the test is referred to as the “60-second Simulated Hand Stirring Test”.

Another data set in a line: Solubility in water. The class given is physicochemical.
For data set [2] the following is noted: cited from earlier work.

Regarding `[Ca+2].[OH-].[OH-]` [Calcium hydroxide], the “calcium base reacts fast enough with the acid for minimal calcium sedimentation” value in data set [1] is on record as “will react fast enough”.
`[O]=[Ca]` [Calcium oxide, reference compound]: the “calcium base reacts fast enough with the acid for minimal calcium sedimentation” value in data set [1] is listed as “may not react fast enough”.
`O=C(CO)[C@@H](O)[C@H](O)[C@H](O)CO` [Fructose]: in data set [1], the “Sweetener/calcium ratio to pass 60-second Simulated Hand Stirring Test” value (“Sweetener/calcium ratio” for short) was 45. Besides, the “Acid required/Dose” value in data set [1] (fructose On Mesh 20 (> 841 micron), 22 g fructose/dose, 500 mg calcium/dose) was 2.0; in data set [1] (fructose On Mesh 20, 6 g fructose/dose, 150 mg calcium/dose) it was 0.5; in data set [1] (fructose On Mesh 20, 16 g fructose/dose, 300 mg calcium/dose), 1.0; in data set [1] (fructose Through mesh 40 (< 420 micron), 22 g fructose/dose, 500 mg calcium/dose), 2.0; in data set [1] (fructose Through mesh 40, 6 g fructose/dose, 150 mg calcium/dose) it was 0.5; in data set [1] (fructose Through mesh 40, 16 g fructose/dose, 300 mg calcium/dose), 1.0.
On to `O=C(O)/C=C/C(=O)O` [Fumaric acid, reference compound], for which the “times more soluble than calcium hydroxide” value in the data set “Solubility in water” is on record as “about four”. The “calcium sedimentation with fumaric acid as the acid” value in data set [1] (555 mg calcium hydroxide (300 mg calcium), 26 grams sucrose, fumaric acid at three times the stoichiometric amount) is on record as “significant calcium sedimentation”. Also, the solubility in water in data set [2] is 0.63 gram per 100 ml of water.
Consider `OC[C@@H](O)[C@@H](O)[C@H](O)[C@@H](O)CO` [Sorbitol, reference compound], for which the “Sweetener/calcium ratio” value in data set [1] is recorded as 95.
With `OC[C@H]1O[C@@](CO)(O[C@H]2O[C@H](CO)[C@@H](O)[C@H](O)[C@H]2O)[C@@H](O)[C@@H]1O` [Sucrose], the “Sweetener/calcium ratio” value in data set [1] was 60.
For the compound `O=C(O)CC(O)C(=O)O` (stereo not drawn) [malic acid], in “Solubility in water”, the “times more soluble than calcium hydroxide” value was “about 300 times”.

The record behind these values is US6833146B2, “Powered beverage mix with rapidly dissolving calcium” (Unilab Pharmatech, Ltd., priority 2002, dated 2004).
